From patent US20140162285A1, “Methods of Modulating Vesicular Trafficking” (The General Hospital Corporation, priority 2009, published 2014)
Peptide text beside a SMILES is read from it. * marks the point of attachment. Biotin = O=C1N[C@H]2[C@H](CS[C@H]2CCCCC(=O)*)N1

T1: PH-domain of ARNO (Homo sapiens, UniProt Q99418)
T1 construct: iv) 253-378aa, plekstrin-homology (PH) domain; made in house; host or cells: E. coli BL21(DE3)
T1 sequence (Q99418 253-378): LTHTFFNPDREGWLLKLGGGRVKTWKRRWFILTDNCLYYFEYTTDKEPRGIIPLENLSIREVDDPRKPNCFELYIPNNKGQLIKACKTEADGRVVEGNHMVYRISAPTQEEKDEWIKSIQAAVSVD


Key:
PH-domain of ARNO = biological target: T1, PH-domain of ARNO; experiment: a2N-derived peptide pull-down with GST-PH domain; type: binding
Method: FIGS. 5A-C are a set of three images of Western blots showing the identification of interaction motif of a2N that is involved in specific binding with the Sec7 domain of ARNO. 5A, The catalytic Sec7 domain of ARNO interacts with two a2N-derived peptides, a2N-01 and a2N-03, in pull-down experiments. The peptide pull-down assay was performed with six a2N-derived interaction peptides immobilized on streptavidin-beads and incubated with purified recombinant GST-only or GST-Sec7 domain. Interacting complexes were eluted and analyzed by Western blotting using monoclonal anti-GST antibodies as described below. The loading controls for GST-only (lane 1) or GST-Sec7 (lane 2) are shown. […] The peptide pull-down assay was performed with peptides a2N-01 and a2N-03 immobilized on streptavidin-beads and incubated with purified recombinant GST-PH domain (5B) or GST-PB domain (5C). Interacting complexes were eluted and analyzed by Western blotting using monoclonal anti-GST antibodies. […]
These a2N-derived peptides were immobilized by an N-terminal biotin-tag, which ensured the same efficiency and equivalent binding to streptavidin-agarose beads. […] After washing beads four times in ice-cold binding buffer, the interacting complexes were eluted by boiling in SDS-PAGE sample buffer for 10 min at 95° C., resolved by SDS-PAGE and analyzed by Western blotting using monoclonal anti-GST antibody. […]

ARNO PB-domain = biological target: T2, ARNO PB-domain (Homo sapiens, UniProt Q99418); experiment: GST pull-down of in vitro translated a2N with ARNO PB-domain; type: binding; conditions: GST pull-down with GST- and His-tagged PB-domain construct
T2 construct: v) 379-400aa, polybasic (PB) domain; made in house; host or cells: E. coli BL21(DE3)
T2 sequence (Q99418 379-400 limits assumed): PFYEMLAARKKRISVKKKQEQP
Method: The purified recombinant GST-ARNO(wt) and GST-tagged ARNO domain constructs ([…]) were incubated with 10 μl of in vitro translated 6His-a2N recombinant protein at 4° C. for 2 hours in 500 μl of binding buffer (10 mM HEPES, 1 mM EDTA, 1 mM DTT, 100 mM NaCl, 10% glycerol, 0.1% NP-40) with gentle rotation. Then the interacting recombinant proteins were immobilized on glutathione beads by incubation with 50 μl of 50% glutathione Sepharose 4B slurry for 2 hours at 4° C. The beads were collected by centrifugation and washed 5 times with 500 μl ice-cold binding buffer. Interacting proteins were eluted by boiling in SDS-PAGE sample buffer for 10 min at 95° C., resolved by SDS-PAGE and analyzed by Western blotting using polyclonal anti-a2N antibodies. […]
To examine the ability of these well-defined and functionally distinct domains of ARNO to interact with a2N1-402, full-length ARNO(wt) and its four domains were cloned separately for bacterial expression of recombinant proteins (FIG. 3). […] Interacting proteins were detected by western blot analysis with a2-specific antibodies as described above.

interaction with PH-domain of ARNO (PH-domain of ARNO)	interaction of a2N with ARNO PB-domain (ARNO PB-domain)	Molecule
does not interact	–	CSCC[C@H](NC(=O)CCCC[C@@H]1SC[C@@H]2NC(=O)N[C@@H]21)C(=O)NCC(=O)N[C@@H](CO)C(=O)N[C@@H](CC(C)C)C(=O)N[C@@H](Cc1ccccc1)C(=O)N[C@@H](CCCNC(=N)N)C(=O)N[C@@H](CO)C(=O)N[C@@H](CCC(=O)O)C(=O)N[C@@H](CO)C(=O)N[C@@H](CCSC)C(=O)N[C@@H](CS)C(=O)N[C@@H](CC(C)C)C(=O)N[C@@H](C)C(=O)N[C@@H](CCC(N)=O)C(=O)N[C@@H](CC(C)C)C(=O)N[C@@H](Cc1ccccc1)C(=O)N[C@@H](CC(C)C)C(=O)N[C@@H](CS)C(=O)O [a2N-01, Bio-MGSLFRSE SMCLAQLFL-Cys] (Biotin-MGSLFRSESMCLAQLFLC-OH; N-terminus and C-terminus assumed)
–	no interaction	a2N: recombinant N-terminal cytosolic tail, amino acid residues 1-402 of mouse V-ATPase a2-subunit (protein, left off: small tags and cut ends, recombinant N-terminal cytosolic tail, amino acid residues 1-402 of mouse V-ATPase a2-subunit) MGSLFRSESMCLAQLFLQSGTAYECLSALGEKGLVQFRDLNQNVSSFQRKFVGEVKRCEELERILVYLVQEITRADIPLPEGEASPPAPPLKHVLEMQEQLQKLEVELREVTKNKEKLRKNLLELVEYTHMLRVTKTFLKRNVEFEPTYEEFPALENDSLLDYSCMQRLGAKLGFVSGLIQQGRVEAFERMLWRACKGYTIVTYAELDECLEDPETGEVIKWYVFLISFWGEQIGHKVKKICDCYHCHIYPYPNTAEERREIQEGLNTRIQDLYTVLHKTEDYLRQVLCKAAESVCSRVVQVRKMKAIYHMLNMCSFDVTNKCLIAEVWCPEVDLPGLRRALEEGSRESGATIPSFMNTIPTKETPPTLIRTNKFTEGFQNIVDAYGVGSYREVNPALFTII
